Data set [1] is described as follows: Cmax in Swiss albino mouse at 10 mg/kg, po measured upto 24 hrs by LC/MS/MS analysis. Format: ADME, organism-based. To be noted: in vivo.
Data set [2] addresses Serine/threonine-protein kinase WNK3 (Homo sapiens) (UniProt Q9BYP7). As to the kind of experiment: Inhibition of Wnk3 Lys2 labeling site in human A-375 cells at 5 uM by KiNativ Profiling analysis relative to control. Format: cell-based.
Data set [3] deals with Serine/threonine-protein kinase 32C (Homo sapiens) (UniProt Q86UX6). Put plainly: Inhibition of YANK3 Lys2 labeling site in human A-375 cells at 5 uM by KiNativ Profiling analysis relative to control. The class given is cell-based.
In data set [4] the target is Serine/threonine-protein kinase 10 (Homo sapiens) (UniProt O94804). Put plainly: Inhibition of LOK Lys1 labeling site harbouring NKETGALAAAKVIETK in human A-375 cells at 0.5 uM by KiNativ Profiling analysis relative to control. The class given is cell-based.
Chain of Serine/threonine-protein kinase 10 (Homo sapiens) (O94804 whole entry, looked up): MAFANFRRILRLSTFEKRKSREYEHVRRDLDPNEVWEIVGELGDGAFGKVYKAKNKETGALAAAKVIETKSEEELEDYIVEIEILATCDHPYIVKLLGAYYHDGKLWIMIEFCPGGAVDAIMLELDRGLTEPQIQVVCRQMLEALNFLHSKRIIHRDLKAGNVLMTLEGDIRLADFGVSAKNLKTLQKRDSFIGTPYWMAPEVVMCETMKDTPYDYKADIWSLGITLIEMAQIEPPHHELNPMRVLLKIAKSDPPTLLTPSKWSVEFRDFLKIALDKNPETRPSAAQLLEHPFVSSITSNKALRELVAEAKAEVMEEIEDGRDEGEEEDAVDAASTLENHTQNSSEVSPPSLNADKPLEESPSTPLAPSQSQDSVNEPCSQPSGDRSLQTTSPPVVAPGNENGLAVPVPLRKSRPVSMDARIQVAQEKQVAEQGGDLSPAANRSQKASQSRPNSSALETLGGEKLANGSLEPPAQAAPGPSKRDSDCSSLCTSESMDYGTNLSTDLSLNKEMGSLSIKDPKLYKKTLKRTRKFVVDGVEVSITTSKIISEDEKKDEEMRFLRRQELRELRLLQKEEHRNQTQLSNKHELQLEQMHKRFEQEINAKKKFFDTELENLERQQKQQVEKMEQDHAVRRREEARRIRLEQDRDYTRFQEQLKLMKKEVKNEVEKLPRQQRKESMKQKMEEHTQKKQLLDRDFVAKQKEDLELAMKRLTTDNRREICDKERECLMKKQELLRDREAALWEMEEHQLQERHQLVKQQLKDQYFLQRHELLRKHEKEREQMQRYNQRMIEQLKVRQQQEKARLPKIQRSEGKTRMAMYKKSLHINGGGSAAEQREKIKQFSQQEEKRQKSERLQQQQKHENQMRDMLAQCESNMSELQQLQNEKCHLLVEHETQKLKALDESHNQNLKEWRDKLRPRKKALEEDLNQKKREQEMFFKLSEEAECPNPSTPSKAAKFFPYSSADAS
The target in data set [5] is T1, Serine/threonine-protein kinase greatwall (Homo sapiens) (UniProt Q96GX5).
T1 sequence (whole entry): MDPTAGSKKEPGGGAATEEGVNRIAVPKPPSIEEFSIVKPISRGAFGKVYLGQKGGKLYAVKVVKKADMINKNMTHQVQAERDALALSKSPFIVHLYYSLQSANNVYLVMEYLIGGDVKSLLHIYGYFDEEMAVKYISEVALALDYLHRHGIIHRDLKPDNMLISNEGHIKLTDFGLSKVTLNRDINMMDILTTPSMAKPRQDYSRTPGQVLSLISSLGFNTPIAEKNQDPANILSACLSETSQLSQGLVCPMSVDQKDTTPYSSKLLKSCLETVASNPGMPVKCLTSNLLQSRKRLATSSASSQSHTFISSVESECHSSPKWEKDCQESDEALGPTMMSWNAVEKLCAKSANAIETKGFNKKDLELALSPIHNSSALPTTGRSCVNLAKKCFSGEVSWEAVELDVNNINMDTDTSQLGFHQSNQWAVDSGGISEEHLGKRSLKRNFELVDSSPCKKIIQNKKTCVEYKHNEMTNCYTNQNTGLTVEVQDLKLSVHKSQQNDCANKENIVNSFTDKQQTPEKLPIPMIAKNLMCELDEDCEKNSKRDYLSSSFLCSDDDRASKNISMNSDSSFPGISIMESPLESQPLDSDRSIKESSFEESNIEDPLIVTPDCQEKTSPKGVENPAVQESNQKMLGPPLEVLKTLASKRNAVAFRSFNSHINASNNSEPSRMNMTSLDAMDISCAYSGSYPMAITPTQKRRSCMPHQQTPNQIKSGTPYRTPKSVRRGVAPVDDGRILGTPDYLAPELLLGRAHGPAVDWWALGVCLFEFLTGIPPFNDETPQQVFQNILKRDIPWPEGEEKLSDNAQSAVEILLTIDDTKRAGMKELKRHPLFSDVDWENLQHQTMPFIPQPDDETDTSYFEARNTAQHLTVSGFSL
As to the kind of experiment: Inhibition of MASTL ATP Loop labeling site in human A-375 cells at 0.5 uM by KiNativ Profiling analysis relative to control. The class given is cell-based.

Data set [6] deals with Serine/threonine-protein kinase WNK1 (Homo sapiens) (UniProt Q9H4A3). As to the kind of experiment: Inhibition of Wnk1 Lys2 labeling site in human A-375 cells at 0.5 uM by KiNativ Profiling analysis relative to control. Format: cell-based.
Chain of Serine/threonine-protein kinase WNK1 (Homo sapiens) (Q9H4A3 whole entry, looked up): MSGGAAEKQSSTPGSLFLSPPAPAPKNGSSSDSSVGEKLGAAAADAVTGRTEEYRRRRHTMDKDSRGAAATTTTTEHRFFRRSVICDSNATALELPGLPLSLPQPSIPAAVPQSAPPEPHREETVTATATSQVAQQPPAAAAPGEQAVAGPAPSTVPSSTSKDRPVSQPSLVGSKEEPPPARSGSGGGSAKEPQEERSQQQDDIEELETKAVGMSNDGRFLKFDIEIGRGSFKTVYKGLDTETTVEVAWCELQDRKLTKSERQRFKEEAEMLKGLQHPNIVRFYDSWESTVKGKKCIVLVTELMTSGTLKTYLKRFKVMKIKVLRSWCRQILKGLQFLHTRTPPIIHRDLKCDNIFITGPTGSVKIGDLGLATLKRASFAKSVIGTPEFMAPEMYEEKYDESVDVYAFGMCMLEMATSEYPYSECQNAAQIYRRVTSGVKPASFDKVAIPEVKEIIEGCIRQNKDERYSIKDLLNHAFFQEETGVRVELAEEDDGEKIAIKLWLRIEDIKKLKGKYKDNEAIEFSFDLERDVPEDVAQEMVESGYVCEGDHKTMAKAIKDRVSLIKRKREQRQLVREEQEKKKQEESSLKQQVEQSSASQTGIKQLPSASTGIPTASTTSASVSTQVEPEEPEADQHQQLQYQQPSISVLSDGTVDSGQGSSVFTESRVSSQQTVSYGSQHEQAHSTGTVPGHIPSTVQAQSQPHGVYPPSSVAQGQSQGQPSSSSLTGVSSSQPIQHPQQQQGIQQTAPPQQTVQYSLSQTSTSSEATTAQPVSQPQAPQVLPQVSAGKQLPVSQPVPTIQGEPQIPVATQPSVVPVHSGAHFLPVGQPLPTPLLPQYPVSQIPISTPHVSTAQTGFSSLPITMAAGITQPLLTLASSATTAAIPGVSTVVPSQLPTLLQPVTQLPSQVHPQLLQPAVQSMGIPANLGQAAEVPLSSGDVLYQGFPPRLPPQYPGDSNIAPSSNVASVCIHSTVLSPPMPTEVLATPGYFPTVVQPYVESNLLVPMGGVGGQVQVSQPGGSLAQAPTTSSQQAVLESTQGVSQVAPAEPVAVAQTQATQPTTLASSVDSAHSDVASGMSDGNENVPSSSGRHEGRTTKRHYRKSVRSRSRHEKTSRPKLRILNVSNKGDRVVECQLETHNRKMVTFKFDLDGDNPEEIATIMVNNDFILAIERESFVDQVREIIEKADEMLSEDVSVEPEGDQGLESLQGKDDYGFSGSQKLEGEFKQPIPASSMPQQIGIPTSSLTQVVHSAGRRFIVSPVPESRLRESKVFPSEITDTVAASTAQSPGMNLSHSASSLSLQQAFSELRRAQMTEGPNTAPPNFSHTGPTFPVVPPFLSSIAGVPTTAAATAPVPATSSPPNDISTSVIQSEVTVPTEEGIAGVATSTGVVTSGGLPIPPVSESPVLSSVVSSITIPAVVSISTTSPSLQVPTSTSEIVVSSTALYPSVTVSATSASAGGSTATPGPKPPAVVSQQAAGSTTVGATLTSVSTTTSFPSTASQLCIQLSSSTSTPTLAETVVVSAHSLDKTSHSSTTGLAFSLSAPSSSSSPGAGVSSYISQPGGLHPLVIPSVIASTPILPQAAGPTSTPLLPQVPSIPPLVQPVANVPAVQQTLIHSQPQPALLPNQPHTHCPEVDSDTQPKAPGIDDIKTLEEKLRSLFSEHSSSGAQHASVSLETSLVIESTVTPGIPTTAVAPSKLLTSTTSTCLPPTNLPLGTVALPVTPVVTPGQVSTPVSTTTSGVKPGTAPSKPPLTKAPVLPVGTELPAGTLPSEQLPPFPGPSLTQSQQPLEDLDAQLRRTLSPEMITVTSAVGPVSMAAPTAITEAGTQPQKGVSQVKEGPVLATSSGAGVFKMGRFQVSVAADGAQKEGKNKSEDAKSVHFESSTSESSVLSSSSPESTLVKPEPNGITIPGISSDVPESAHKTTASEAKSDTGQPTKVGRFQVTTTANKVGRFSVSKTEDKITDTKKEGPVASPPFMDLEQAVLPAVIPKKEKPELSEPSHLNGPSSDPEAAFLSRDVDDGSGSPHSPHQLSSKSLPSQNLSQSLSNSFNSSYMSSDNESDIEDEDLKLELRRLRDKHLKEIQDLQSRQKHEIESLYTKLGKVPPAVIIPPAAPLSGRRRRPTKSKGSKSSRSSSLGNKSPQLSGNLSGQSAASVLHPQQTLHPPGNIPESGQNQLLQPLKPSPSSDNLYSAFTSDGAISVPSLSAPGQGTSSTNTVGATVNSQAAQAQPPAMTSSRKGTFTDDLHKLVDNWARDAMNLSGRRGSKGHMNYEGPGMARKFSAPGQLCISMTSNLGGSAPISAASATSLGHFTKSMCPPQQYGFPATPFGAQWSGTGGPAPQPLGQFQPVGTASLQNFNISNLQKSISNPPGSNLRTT
Data set [7] has the same target. As to the kind of experiment: Inhibition of Wnk1 ACT labeling site in human A-375 cells at 0.5 uM by KiNativ Profiling analysis relative to control. The class given is cell-based.
The target of data set [8] is Cyclin-dependent kinase 1 (Homo sapiens) (UniProt P06493). As to the kind of experiment: Inhibition of CDC2 Lys2 labeling site harbouring VLHRDLKPQNLLIDDKGTIK in human A-375 cells at 0.05 uM by KiNativ Profiling analysis relative to control. The class given is cell-based.
Data set [9] addresses T2, Phosphatidylinositol 4,5-bisphosphate 3-kinase catalytic subunit delta isoform (Homo sapiens) (UniProt O00329).
T2 sequence (whole entry): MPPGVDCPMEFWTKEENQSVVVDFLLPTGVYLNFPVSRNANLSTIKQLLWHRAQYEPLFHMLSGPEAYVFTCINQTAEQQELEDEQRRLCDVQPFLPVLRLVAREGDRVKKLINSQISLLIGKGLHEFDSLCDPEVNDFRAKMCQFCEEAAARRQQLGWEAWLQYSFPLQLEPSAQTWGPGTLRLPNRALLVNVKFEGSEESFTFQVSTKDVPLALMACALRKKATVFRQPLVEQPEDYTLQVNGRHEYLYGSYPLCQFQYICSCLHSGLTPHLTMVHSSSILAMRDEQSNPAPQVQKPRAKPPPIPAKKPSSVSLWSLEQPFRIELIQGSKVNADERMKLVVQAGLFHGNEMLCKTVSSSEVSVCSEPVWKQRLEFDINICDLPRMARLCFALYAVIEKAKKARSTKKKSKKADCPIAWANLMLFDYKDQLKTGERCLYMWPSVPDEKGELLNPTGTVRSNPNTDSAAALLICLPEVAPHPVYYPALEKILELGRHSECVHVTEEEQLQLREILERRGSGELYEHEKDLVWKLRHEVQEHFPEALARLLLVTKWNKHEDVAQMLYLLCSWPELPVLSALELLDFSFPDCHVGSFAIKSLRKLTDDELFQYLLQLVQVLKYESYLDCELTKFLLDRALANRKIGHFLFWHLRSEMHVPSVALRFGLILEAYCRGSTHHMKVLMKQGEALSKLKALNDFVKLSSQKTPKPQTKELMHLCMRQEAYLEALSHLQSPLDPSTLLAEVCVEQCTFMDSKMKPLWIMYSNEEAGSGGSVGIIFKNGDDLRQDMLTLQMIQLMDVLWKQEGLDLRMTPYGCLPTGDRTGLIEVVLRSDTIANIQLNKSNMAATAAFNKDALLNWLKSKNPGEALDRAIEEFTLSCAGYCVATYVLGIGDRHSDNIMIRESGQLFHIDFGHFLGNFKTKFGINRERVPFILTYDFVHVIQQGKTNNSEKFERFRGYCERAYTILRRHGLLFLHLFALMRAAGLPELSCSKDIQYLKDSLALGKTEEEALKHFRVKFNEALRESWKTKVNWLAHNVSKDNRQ
Put plainly: Inhibition of PIK3CD ATP labeling site in human A-375 cells at 0.05 uM by KiNativ Profiling analysis relative to control. The class given is cell-based.

Data set [10] has as its target Protein kinase C beta type (Homo sapiens) (UniProt P05771). As to the kind of experiment: Inhibition of PKCb Lys2 labeling site in human A-375 cells at 0.05 uM by KiNativ Profiling analysis relative to control. Format: cell-based.
The target in data set [11] is Mitogen-activated protein kinase 9 (Homo sapiens, UniProt P45984). As to the kind of experiment: Inhibition of JNK2 Lys2 labeling site in human Huh-7 cell lysate at 1 uM by KiNativ Profiling analysis relative to control. The class given is subcellular.
Data set [12] deals with Mitogen-activated protein kinase 14 (Homo sapiens, UniProt Q16539). Put plainly: Inhibition of p38 alpha in human Huh-7 cell lysate at 1 uM by KiNativ Profiling analysis relative to control. Format: subcellular.

This is an account of results in ChEMBL document CHEMBL5696442, “Discovery of type II inhibitors of TGFβ-activated kinase 1 (TAK1) and mitogen-activated protein kinase kinase kinase kinase 2 (MAP4K2)” (J Med Chem, 2015).

Chain of Serine/threonine-protein kinase WNK3 (Homo sapiens) (Q9BYP7 whole entry): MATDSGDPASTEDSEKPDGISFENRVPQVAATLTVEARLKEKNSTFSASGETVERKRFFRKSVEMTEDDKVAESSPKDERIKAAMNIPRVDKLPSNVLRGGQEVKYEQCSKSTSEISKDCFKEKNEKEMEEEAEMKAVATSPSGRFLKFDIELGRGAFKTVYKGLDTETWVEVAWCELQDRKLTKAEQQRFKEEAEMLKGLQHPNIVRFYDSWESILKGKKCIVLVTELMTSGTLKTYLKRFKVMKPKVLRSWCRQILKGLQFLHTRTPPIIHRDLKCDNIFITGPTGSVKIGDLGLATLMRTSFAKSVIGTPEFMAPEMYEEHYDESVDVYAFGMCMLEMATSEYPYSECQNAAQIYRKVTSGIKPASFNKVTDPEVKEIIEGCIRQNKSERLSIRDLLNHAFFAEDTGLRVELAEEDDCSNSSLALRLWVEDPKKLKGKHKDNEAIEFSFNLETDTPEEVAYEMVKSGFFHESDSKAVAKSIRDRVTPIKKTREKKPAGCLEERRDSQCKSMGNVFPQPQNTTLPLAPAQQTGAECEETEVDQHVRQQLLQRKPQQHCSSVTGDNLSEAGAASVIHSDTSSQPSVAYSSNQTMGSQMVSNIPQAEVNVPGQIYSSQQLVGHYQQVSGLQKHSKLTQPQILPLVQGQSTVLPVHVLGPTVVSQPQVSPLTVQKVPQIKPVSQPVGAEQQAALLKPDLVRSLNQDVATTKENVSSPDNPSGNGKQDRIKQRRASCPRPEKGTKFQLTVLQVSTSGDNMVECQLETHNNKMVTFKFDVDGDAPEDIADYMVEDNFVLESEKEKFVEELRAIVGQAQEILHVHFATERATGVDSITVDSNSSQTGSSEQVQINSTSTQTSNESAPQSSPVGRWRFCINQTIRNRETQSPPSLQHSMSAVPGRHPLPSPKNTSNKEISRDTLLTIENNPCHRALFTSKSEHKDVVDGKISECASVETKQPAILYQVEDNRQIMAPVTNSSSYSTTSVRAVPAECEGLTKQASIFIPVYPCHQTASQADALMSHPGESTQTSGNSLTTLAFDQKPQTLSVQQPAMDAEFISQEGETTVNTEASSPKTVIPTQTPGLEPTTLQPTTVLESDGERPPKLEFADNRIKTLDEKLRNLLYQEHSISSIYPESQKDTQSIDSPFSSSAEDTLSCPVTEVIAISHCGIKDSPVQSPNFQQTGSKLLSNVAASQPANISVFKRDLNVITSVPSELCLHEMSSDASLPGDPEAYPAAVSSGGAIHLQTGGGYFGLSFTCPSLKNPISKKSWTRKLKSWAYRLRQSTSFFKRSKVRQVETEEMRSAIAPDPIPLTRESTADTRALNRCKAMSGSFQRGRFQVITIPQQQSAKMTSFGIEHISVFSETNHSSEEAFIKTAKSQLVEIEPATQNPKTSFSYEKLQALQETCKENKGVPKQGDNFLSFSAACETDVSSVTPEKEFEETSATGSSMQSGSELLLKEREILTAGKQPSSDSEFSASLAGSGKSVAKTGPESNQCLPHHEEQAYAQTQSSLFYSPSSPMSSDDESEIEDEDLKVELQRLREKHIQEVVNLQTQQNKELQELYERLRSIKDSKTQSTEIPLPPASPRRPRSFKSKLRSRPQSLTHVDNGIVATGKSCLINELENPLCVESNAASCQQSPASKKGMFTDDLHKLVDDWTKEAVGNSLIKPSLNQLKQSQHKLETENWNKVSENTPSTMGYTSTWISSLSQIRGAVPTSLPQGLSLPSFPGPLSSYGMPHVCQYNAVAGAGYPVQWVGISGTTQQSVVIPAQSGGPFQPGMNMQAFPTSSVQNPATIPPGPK

Regarding `CCN1CCN(Cc2ccc(NC(=O)c3ccc(C)c(/C=C/c4cnc5[nH]ccc5c4OC)c3)cc2C(F)(F)F)CC1`, the peak concentration (Cmax) (in general, the maximum level reached in the sampled fluid or tissue) in [1] came out at 163 ng/mL. Further, the inhibition (commonly the change of the read-out against control, counted positive when it falls) was determined as 14.3% in [2]; 12.7% in data set [3]; 61.8% in data set [4]; 0.2% in [5]; 7.9% in data set [6]; 6.9% in data set [7]. The results for the inhibition in [8], in data set [9] and in data set [10] were 6.4%, 24.3% and 58%, respectively.

In data set [1], `CCN1CCN(Cc2ccc(NC(=O)c3ccc(C)c(Oc4ccnc5[nH]ccc45)c3)cc2C(F)(F)F)CC1` had a Cmax of 316 ng/mL. Besides, the inhibition in data set [2] is -5.5%; in data set [3], 16.2%; in data set [4] it was 74.7%; in [5], 11.4%; in data set [6], -3%; in data set [7], 3.9%. Also, the inhibition in data set [8] was -2.9%; in [9] it was 4.1%; in data set [10], 45.3%.

As to `CNc1cc(Oc2cc(C(=O)Nc3cc(-n4cnc(C)c4)cc(C(F)(F)F)c3)ccc2C)ncn1`, the inhibition in data set [11] amounted to 18.4%; in data set [12], 13.4%.

Turning to `CNc1cc(Oc2cc(C(=O)Nc3cc(N4CCN(C)CC4)cc(C(F)(F)F)c3)ccc2C)ncn1`, the inhibition in data set [11] amounted to 7%; in [12], 27.1%.
